Read-outs that look alike come from different tables or passages of the source.
What was measured:
HSV-2 (333 strain) = details: for % plaque inhibition: 2 hours pre-incubation
Description: In Series No. 1 of Example No. 1, monolayer cultures of Vero, RK-13 (rabbit kidney), and WISH (human amnion, Hayflick) cells were used in the experiments of Example No. 1. The cells were grown in Basal Minimal Eagle's Media supplemented with 5% fetal calf serum, 1% glutamine, sodium bicarbote and antibiotics. Cultures were maintained in a maintenance media that was the same media, except that the maintenance media contained 2% fetal calf serum. An F Strain of HSV-1 was chosen because it is a well-known prototype of HSV-1. This F Strain can be obtained from the American Type Culture Collection (ATCC), 12301 Parklawn Drive, Rockville, MD 20852, at which it is identified as ATC-VR 733. For studies with HSV-2, a G strain of HSV-2 (ATCC-VR 734) and a 333 strain of HSV-2 were selected. These strains also can be obtained from the ATCC.
Two methods were used to test the drug's effectiveness in the suppression of viral growth. In the pre-inoculation experiments, the drug was added after adsorption of the virus. In the pre-incubation experiments, the drug was added prior to infection of the cell cultures.
Accordingly, the pre-inoculation experiments measured the effect of the drug on a cell that was already infected with the virus. The pre-incubation experiments measured the cell cultures that were treated with the drug prior to the inoculation to determine if these cells then would be permissive or non-permissive to the tested virus. In these experiments, plaque reduction assays provided a quantitative measure of antiviral activity and was deemed to be reliable and objective.
In the pre-incubation experiments, the media was either decanted or gently aspirated from the cultures. After decanting or aspirating, 1 ml of the drug dilution plus maintenance media was added to the cultures. The cultures that served as virus controls or cell controls received 2 ml of maintenance media. After the pre-treatment period, the media was again aspirated and the cell cultures were infected with the virus.
When this occurred, the cultures were fixed and stained with crystal violet. The plaque were then carefully counted under the microscope. By such a counting and careful comparison, percentages of plaque inhibition in the treated cultures were then calculated.
The 333 strain, which can be obtained from ATCC, was used.

[1] = system: herpes simplex virus (HSV types 1 and 2)
HSV-1 (McKrae strain) [2] = details: Virus and Drug (20 mg/ml)
HSV-1 = details: 20 mg/ml TEAC, virus control 1398
HSV-1 (F strain) [3] = details: 2.5 mg/ml TEAC
HSV-1 (McKrae strain) [4] = system: HSV-1 (McKrae strain)
Vero cells = details: 25 mg/ml, 48 hours, 37° C.
Description: (§1) Healthy confluent monolayer cell cultures were overlaid with 1 ml of the drug and incubated for 48 hours at 37° C. and then stained. Cell cultures with maintenance media were used as controls.

[5] = system: Flow 1000 cells (foreskin cells); details: 25 mg/ml, 48 hours, 37° C.
Description: as §1

RK-13 cells = details: 25 mg/ml, 48 hours, 37° C.
Description: as §1

HSV-1 and HSV-2 = type: cell-based
HSV-1 (F strain) [6] = details: for % plaque inhibition B: Exp. 1D
HSV-1 (McKrae strain) [7] = details: for No. of Plaques: virus controls 270, 270, 252
Description: All cultures were incubated at 37° C. in a 5% CO2 humidified atmosphere. The cultures were stained with crystal violet to aid in counting the plaque.

CC[N+](CC)(CC)CC.[Cl-] [TEAC, tetraethylammonium chloride]
% plaque inhibition (HSV-2 (333 strain); 6.25 mg/culture): 0%
% plaque inhibition (HSV-2 (333 strain); 12.50 mg/culture): 25%
% plaque inhibition (HSV-2 (333 strain); 25.00 mg/culture): 42%
% plaque inhibition (HSV-2 (333 strain); 50.00 mg/culture): 56%
sensitivity of HSV-2 (333 strain) to TEAC vs HSV-1 (HSV-2 (333 strain); based on Table 6): even more sensitive to TEAC than HSV-1
attacks ([1]; Patient B, about a month after report on fourth infusion): no more attacks
recurrences ([1]; Patient B, after third infusion): recurrences were not eliminated
resolution of oral lesions ([1]; Patient B, first infusion 3.7 cc (5 mg/kg)): resolution occurring in a shorter than usual time
value of last treatment ([1]; Patient B, fourth infusion 4.8 cc): of no value
aura and expected labial lesion ([1]; Patient B, second infusion 3.7 cc, following day): absence of an aura and no occurrence of the expected lesion except for a very small lesion at the corner of the mouth
time to disappearance of penile lesion ([1]; Patient B, third infusion 4.5 cc): 2 to 3 days
long term outcome ([1]; Patient C, five months and ten months after initial treatment): no further problems
infection ([1]; Patient I, first infusion 4.7 cc, four to five days later): they were all clear
time to clearing of lesion ([1]; Patient I, second infusion 4.75 cc (5.5 mg/kg)): 3 days
nocturnal headaches ([1]; Patient I, three months after second infusion): no further nocturnal headaches
drug related effects (Patient A, 2.8 cc infusion): some blurred vision and slight dizziness on rising to the seated position
drug related effects (Patient A, 3.2 cc infusion): some blurred vision
drug related effects (Patient B, 3.7 cc (5 mg/kg) infusion): blurred vision, dryness of the mouth, and unsteady gait
time to cessation of drug related effects (Patient B, after cessation of infusion): 10 to 15 min
drug related effects (Patient C, 3.85 cc (5 mg/kg)): slightly blurred vision
drug related effects (Patient D, 2.8 cc (5 mg/kg)): dry mouth and transient blurred vision
drug related effects (Patient E, 4.8 cc (5 mg/kg)): slightly blurred vision
drug related effects (Patient J, 3.6 cc (5.5 mg/kg)): some blurred vision
drug related effects (Patient K, 3.1 cc and 3.4 cc): some blurred vision
drug related effects (Patient L, 2.9 cc (5.5 mg/kg)): some blurred vision
time patient felt badly following treatment (Patient L, 2.9 cc (5.5 mg/kg)): 24 to 36 h
cells exhibiting CPE, area of infection per field (HSV-1 (McKrae strain) [2]; 6 hours P.I., virus control 1/4): 1/6
cells exhibiting CPE, area of infection per field (HSV-1 (McKrae strain) [2]; 30 hours P.I., virus control 1/2): scattered
PFU/ml (HSV-1; removed 4 hours P.I.): 1042 PFU/ml
PFU/ml (HSV-1; removed 6 hours P.I.): 596 PFU/ml
PFU/ml (HSV-1; removed 8 hours P.I.): 436 PFU/ml
PFU/ml (HSV-1; removed 10 hours P.I.): 163 PFU/ml
size of the plaque vs control (HSV-1 (F strain) [3]): appreciably smaller
average number of plaque (HSV-1 (F strain) [3]; 1 ml + 4 ml media, after adsorption, control 488.5): 75.5 plaque
change in the morphology of the cells (Vero and WISH cells; 5 mg, 2.5 mg and 1.25 mg TEAC per culture, overnight): No change in the morphology of the cells
growth or general appearance vs untreated controls (Vero and WISH cells; after wash, additional 24 hours in fresh medium): no apparent difference in the growth or general appearance
number of cells containing intranuclear dense bodies vs control (HSV-1 (McKrae strain) [4]; 6 hours post infection): no striking difference
No. of cells with internuclear dense bodies (HSV-1 (McKrae strain) [4]; TEAC treated, 24 hours P.I., 300 cells examined, control 0 of 50): 12
No. of cells with virus particles (HSV-1 (McKrae strain) [4]; TEAC treated, 24 hours P.I., 300 cells examined, control 50 of 50): 8
Total % (HSV-1 (McKrae strain) [4]; TEAC treated, 24 hours P.I., control 100%): 6%
size of nucleocapsids (HSV-1 (McKrae strain) [4]; TEAC-treated cells, 24 hours post infection): about 99.6 A
toxicity (Vero cells): slight toxicity
toxicity [5]: toxicity
toxicity (RK-13 cells): toxicity
permissiveness of cells to virus (HSV-1 and HSV-2; TEAC added before viral inoculation, time and dosage dependent): rendered the cells non-permissive to the virus and no plaque formed
in vitro replication of HSV-1 and HSV-2 (HSV-1 and HSV-2; summary): inhibited the in vitro replication of HSV-1 and HSV-2
plaque number and size (HSV-1 and HSV-2; summary): not only by the reduced number of plaque, but also by their reduced size
% plaque inhibition (HSV-1 (F strain) [6]; Exp. 1C, 3 hours pre-incubation, 2.5 mg/culture): 10%
% plaque inhibition (HSV-1 (F strain) [6]; Exp. 1C, 3 hours pre-incubation, 5.0 mg/culture): 22%
% plaque inhibition (HSV-1 (F strain) [6]; Exp. 1C, 3 hours pre-incubation, 10.0 mg/culture): 71%
% plaque inhibition B (HSV-1 (F strain) [6]; 3 hours pre-incubation, 12.5 mg/culture): 80%
% plaque inhibition B (HSV-1 (F strain) [6]; 3 hours pre-incubation, 25.0 mg/culture): 79%
% plaque inhibition B (HSV-1 (F strain) [6]; 3 hours pre-incubation, 50.0 mg/culture): 82%
% plaque inhibition B (HSV-1 (F strain) [6]; 3 hours pre-incubation, 100.0 mg/culture): 79%
% plaque inhibition (HSV-1 (F strain) [6]; Exp. 1E, 2 hours pre-incubation, 6.25 mg/culture): 0%
% plaque inhibition (HSV-1 (F strain) [6]; Exp. 1E, 2 hours pre-incubation, 12.50 mg/culture): 18%
% plaque inhibition (HSV-1 (F strain) [6]; Exp. 1E, 2 hours pre-incubation, 25.00 mg/culture): 17%
% plaque inhibition (HSV-1 (F strain) [6]; Exp. 1E, 2 hours pre-incubation, 50.00 mg/culture): 24%
% plaque inhibition (HSV-1 (F strain) [6]; Exp. 1E, 2 hours pre-incubation, 100.00 mg/culture): 68%
% plaque inhibition (HSV-1 (F strain) [6]; Exp. 1E, 4 hours pre-incubation, 6.25 mg/culture): less than 20%
% plaque inhibition (HSV-1 (F strain) [6]; Exp. 1E, 4 hours pre-incubation, 12.50 mg/culture): less than 20%
% plaque inhibition (HSV-1 (F strain) [6]; Exp. 1E, 4 hours pre-incubation, 25.00 mg/culture): 37.5%
% plaque inhibition (HSV-1 (F strain) [6]; Exp. 1E, 4 hours pre-incubation, 50.00 mg/culture): 63%
appearance of cell layer (HSV-1 (F strain) [6]; Exp. 1E, 4 hours pre-incubation, 100.00 mg/culture): thin
% plaque inhibition (HSV-1 (F strain) [6]; Exp. 1E, 4 hours pre-incubation, 100.00 mg/culture, cell layer thin): 100%
% plaque inhibition (HSV-1 (F strain) [6]; Exp. 1E, 7 hours pre-incubation, 6.25 mg/culture): 50%
% plaque inhibition (HSV-1 (F strain) [6]; Exp. 1E, 7 hours pre-incubation, 12.50 mg/culture): 76%
% plaque inhibition (HSV-1 (F strain) [6]; Exp. 1E, 7 hours pre-incubation, 25.00 mg/culture): 96.5%
% plaque inhibition (HSV-1 (F strain) [6]; Exp. 1E, 7 hours pre-incubation, 50.00 mg/culture): 95.7%
appearance of cell layer (HSV-1 (F strain) [6]; Exp. 1E, 7 hours pre-incubation, 100.00 mg/culture): thin
% plaque inhibition (HSV-1 (F strain) [6]; Exp. 1E, 7 hours pre-incubation, 100.00 mg/culture, cell layer thin): 100%
No. of Plaques (HSV-1 (McKrae strain) [7]; 3.125 mg/ml): 247
No. of Plaques (HSV-1 (McKrae strain) [7]; 6.250 mg/ml): 286
No. of Plaques (HSV-1 (McKrae strain) [7]; 12.500 mg/ml): 300
appearance of monolayer (HSV-1 (McKrae strain) [7]; 25 mg/ml): thinned out appearance
No. of Plaques (HSV-1 (McKrae strain) [7]; 25.000 mg/ml): 0
effectiveness in plaque inhibition (HSV-1 (McKrae strain) [7]; concentrations below 25 mg/ml): not significantly effective in achieving plaque inhibition
appearance of cell layers (vaccinia): thin
plaque (vaccinia): did not have any plaque
